Source: ChEMBL document CHEMBL3885881, “DrugMatrix”

Species: Rattus norvegicus
Assay: DrugMatrix - Regimen: Daily Repeat
Format: toxicity, organism-based, Sprague-Dawley
Parameters: regimen Daily Repeat, gender Male, age 6-8 weeks
Settings: in vivo, po, route oral GAVAGE, vehicle 60 % PEG400; for URIC ACID / ALANINE AMINOTRANSFERASE / ALBUMIN / ALKALINE PHOSPHATASE / ASPARTATE AMINOTRANSFERASE / BLOOD UREA NITROGEN / CARBON DIOXIDE / CHLORIDE / CHOLESTEROL / CREATINE PHOSPHOKINASE / CREATININE / GLUCOSE / LACTATE DEHYDROGENASE / LIPASE / PHOSPHORUS / POTASSIUM / SODIUM / TOTAL BILIRUBIN / TOTAL PROTEIN: tissue Plasma; for ABSOLUTE BASOPHIL / ABSOLUTE EOSINOPHIL / ABSOLUTE LYMPHOCYTE / ABSOLUTE MONOCYTE / ABSOLUTE SEGMENTED NEUTROPHIL / BASOPHIL / EOSINOPHIL / ERYTHROCYTE COUNT / HEMATOCRIT / HEMOGLOBIN / LEUKOCYTE COUNT / LYMPHOCYTE / MEAN CORPUSCULAR HEMOGLOBIN / MEAN CORPUSCULAR HEMOGLOBIN CONCENTRATION / MEAN CORPUSCULAR VOLUME / MONOCYTE / NEUTROPHIL / NUCLEATED RED BLOOD CELLS / PLATELET COUNT: tissue Blood
[1] = 0.001 mg/kg, 120 h, dose level Low, time 5 day
[2] = 0.1 mg/kg, 72 h, dose level High, time 3 day
[3] = 0.1 mg/kg, 120 h, dose level High, time 5 day

SMILES: N[C@@H](Cc1cc(I)c(Oc2ccc(O)c(I)c2)c(I)c1)C(=O)O [LIOTHYRONINE]
- URIC ACID (0.001 mg/kg, 72 h, dose level Low, time 3 day): 1.37 mg/dL
- ABSOLUTE BASOPHIL [1]: 0 CELLS/uL
- ABSOLUTE EOSINOPHIL [1]: 0 CELLS/uL
- ABSOLUTE LYMPHOCYTE [1]: 5590 CELLS/uL
- ABSOLUTE MONOCYTE [1]: 0 CELLS/uL
- ABSOLUTE SEGMENTED NEUTROPHIL [1]: 543.33 CELLS/uL
- BASOPHIL [1]: 0%
- EOSINOPHIL [1]: 0%
- ERYTHROCYTE COUNT [1]: 5.59 x10E6/uL
- HEMATOCRIT [1]: 33.3%
- HEMOGLOBIN [1]: 12.43 G/DL
- LEUKOCYTE COUNT [1]: 6.13 x10E3/uL
- LYMPHOCYTE [1]: 91%
- MEAN CORPUSCULAR HEMOGLOBIN [1]: 22.27 pg
- MEAN CORPUSCULAR HEMOGLOBIN CONCENTRATION [1]: 37.37 G/DL
- MEAN CORPUSCULAR VOLUME [1]: 59.57 fL
- MONOCYTE [1]: 0%
- NEUTROPHIL [1]: 9%
- NUCLEATED RED BLOOD CELLS [1]: 0.67 /100WBC
- PLATELET COUNT [1]: 972.33 x10E3/uL
- ALANINE AMINOTRANSFERASE [1]: 52.67 u/L
- ALBUMIN [1]: 4.57 G/DL
- ALKALINE PHOSPHATASE [1]: 421 u/L
- ASPARTATE AMINOTRANSFERASE [1]: 80.33 u/L
- BLOOD UREA NITROGEN [1]: 15.33 mg/dL
- CARBON DIOXIDE [1]: 31 mmol/L
- CHLORIDE [1]: 100.33 MEQ/L
- CHOLESTEROL [1]: 86 mg/dL
- CREATINE PHOSPHOKINASE [1]: 257.67 u/L
- CREATININE [1]: 0.19 mg/dL
- GLUCOSE [1]: 174.33 mg/dL
- LACTATE DEHYDROGENASE [1]: 98.33 u/L
- LIPASE [1]: 8.33 u/L
- PHOSPHORUS [1]: 12.67 mg/dL
- POTASSIUM [1]: 6.56 MEQ/L
- SODIUM [1]: 144.9 MEQ/L
- TOTAL BILIRUBIN [1]: 0.1 mg/dL
- URIC ACID [1]: 2.23 mg/dL
- ABSOLUTE BASOPHIL [2]: 0 CELLS/uL
- ABSOLUTE EOSINOPHIL [2]: 0 CELLS/uL
- ABSOLUTE LYMPHOCYTE [2]: 13461.67 CELLS/uL
- ABSOLUTE MONOCYTE [2]: 261.67 CELLS/uL
- ABSOLUTE SEGMENTED NEUTROPHIL [2]: 1443.33 CELLS/uL
- BASOPHIL [2]: 0%
- EOSINOPHIL [2]: 0%
- ERYTHROCYTE COUNT [2]: 6.02 x10E6/uL
- HEMATOCRIT [2]: 37%
- HEMOGLOBIN [2]: 14.37 G/DL
- LEUKOCYTE COUNT [2]: 15.17 x10E3/uL
- LYMPHOCYTE [2]: 89.33%
- MEAN CORPUSCULAR HEMOGLOBIN [2]: 23.9 pg
- MEAN CORPUSCULAR HEMOGLOBIN CONCENTRATION [2]: 38.8 G/DL
- MEAN CORPUSCULAR VOLUME [2]: 61.5 fL
- MONOCYTE [2]: 1.67%
- NEUTROPHIL [2]: 9%
- NUCLEATED RED BLOOD CELLS [2]: 0 /100WBC
- PLATELET COUNT [2]: 889 x10E3/uL
- ALANINE AMINOTRANSFERASE [2]: 70.67 u/L
- ALBUMIN [2]: 4.1 G/DL
- ALKALINE PHOSPHATASE [2]: 525 u/L
- ASPARTATE AMINOTRANSFERASE [2]: 112 u/L
- BLOOD UREA NITROGEN [2]: 14.67 mg/dL
- CARBON DIOXIDE [2]: 26.67 mmol/L
- CHLORIDE [2]: 104 MEQ/L
- CHOLESTEROL [2]: 88 mg/dL
- CREATINE PHOSPHOKINASE [2]: 402.67 u/L
- CREATININE [2]: 0.19 mg/dL
- GLUCOSE [2]: 148.67 mg/dL
- LACTATE DEHYDROGENASE [2]: 156.67 u/L
- LIPASE [2]: 14 u/L
- PHOSPHORUS [2]: 15.67 mg/dL
- POTASSIUM [2]: 7.38 MEQ/L
- SODIUM [2]: 147 MEQ/L
- TOTAL BILIRUBIN [2]: 0.13 mg/dL
- TOTAL PROTEIN [2]: 5.67 G/DL
- URIC ACID [2]: 2.47 mg/dL
- ABSOLUTE BASOPHIL [3]: 0 CELLS/uL
- ABSOLUTE EOSINOPHIL [3]: 0 CELLS/uL
- ABSOLUTE LYMPHOCYTE [3]: 3351.33 CELLS/uL
- ABSOLUTE MONOCYTE [3]: 14.67 CELLS/uL
- ABSOLUTE SEGMENTED NEUTROPHIL [3]: 800.67 CELLS/uL
- BASOPHIL [3]: 0%
- EOSINOPHIL [3]: 0%
- ERYTHROCYTE COUNT [3]: 5.59 x10E6/uL
- HEMATOCRIT [3]: 34.2%
- HEMOGLOBIN [3]: 12.77 G/DL
- LEUKOCYTE COUNT [3]: 4.17 x10E3/uL
- LYMPHOCYTE [3]: 80.33%
- MEAN CORPUSCULAR HEMOGLOBIN [3]: 22.83 pg
- MEAN CORPUSCULAR HEMOGLOBIN CONCENTRATION [3]: 37.33 G/DL
- MEAN CORPUSCULAR VOLUME [3]: 61.17 fL
- MONOCYTE [3]: 0.33%
- NEUTROPHIL [3]: 19.33%
- NUCLEATED RED BLOOD CELLS [3]: 0.33 /100WBC
- PLATELET COUNT [3]: 792.67 x10E3/uL
- ALANINE AMINOTRANSFERASE [3]: 69.67 u/L
- ALBUMIN [3]: 4.13 G/DL
- ALKALINE PHOSPHATASE [3]: 576 u/L
- ASPARTATE AMINOTRANSFERASE [3]: 110 u/L
- BLOOD UREA NITROGEN [3]: 12.67 mg/dL
- CARBON DIOXIDE [3]: 32.67 mmol/L
- CHLORIDE [3]: 103.33 MEQ/L
- CHOLESTEROL [3]: 94.67 mg/dL
- CREATINE PHOSPHOKINASE [3]: 218 u/L
- CREATININE [3]: 0.12 mg/dL
- GLUCOSE [3]: 132.67 mg/dL
- LACTATE DEHYDROGENASE [3]: 105.33 u/L
- LIPASE [3]: 12.33 u/L
- PHOSPHORUS [3]: 13.73 mg/dL
- POTASSIUM [3]: 7.47 MEQ/L
- SODIUM [3]: 149.43 MEQ/L
- TOTAL BILIRUBIN [3]: 0.13 mg/dL
- TOTAL PROTEIN [3]: 5.8 G/DL
- URIC ACID [3]: 2.43 mg/dL
